Experiment [1] relates to phospho-akt (Thr308) in PC-3 cells. Nature of the experiment: Inhibition of phospho-akt (Thr308) in PC-3 cells, MSD phospho-akt 308 ELISA kit. The experiment is classed as cell-based. As to conditions: Homo sapiens, 2 hours, no serum, read-out: EC50. In short, it runs like this:
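Electrochemiluminescent MSD ELISA of Thr308-phosphorylated Akt after a 2 h serum-free compound exposure of PC-3 cells (15,000/well, plated overnight). Controls: DMSO (high), 5 μM wortmannin (low). Lysate binding overnight at 4 °C; detection antibody 1 h at room temperature.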

The next experiment has as its target PDK1 (Homo sapiens (Human), UniProt O15530). Nature of the experiment: PDK1 kinase assay (coupled PDK1/AKT/FAM-crosstide assay, IMAP fluorescence polarization). It is filed as biochemical. In short, it runs like this: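 GST-tagged PDK1 (aa 51-359, 0.75 nM) was coupled to unphosphorylated GST-AKT2 140-467-PIFtide (10 nM) and 100 nM FAM-crosstide at 40 μM ATP, in Tris pH 7.2 buffer, for 30 min at 25 °C. Crosstide phosphorylation was read by IMAP fluorescence polarization (ΔmP) and fitted with a 4-parameter curve.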

Where [2] appears, read: inhibition of phospo-PDK1 in vitro.
Setting [3] is: inhibition of P308 Akt in PC-3 cells, MSD.
Where [4] appears, read: inhibition of P308 Akt in PC-3 cells using MSD.

Each structure is given as a SMILES string. pEC50, pIC50: −log10 of the molar value. Structures can show the parent of a compound that is named as a salt. Where two headings read alike, the source gives them in different places.

Chain of PDK1 (O15530 51-359): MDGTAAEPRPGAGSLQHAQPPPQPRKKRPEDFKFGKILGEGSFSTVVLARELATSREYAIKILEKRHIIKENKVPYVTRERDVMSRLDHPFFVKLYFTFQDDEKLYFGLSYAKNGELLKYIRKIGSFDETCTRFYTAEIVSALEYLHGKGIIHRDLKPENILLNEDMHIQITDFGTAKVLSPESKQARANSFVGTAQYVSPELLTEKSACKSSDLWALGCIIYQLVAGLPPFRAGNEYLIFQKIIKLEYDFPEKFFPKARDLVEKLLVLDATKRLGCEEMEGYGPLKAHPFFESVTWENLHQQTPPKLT

As for `C[C@H](NC(=O)c1cccnc1NCc1ccc(-c2c[nH]c(=O)c3ccccc23)s1)c1ccc(F)cc1` [Example 2.9, (S)-N-(1-(4-fluorophenyl)ethyl)-2-(((5-(1-oxo-1,2-dihydroiso-quinolin-4-yl)thiophen-2-yl)methyl)amino)nicotinamide], in experiment [1] (PC-3, 2 h, inhibition of P308 Akt in PC-3 cells, MSD), the pEC50 is 5.00 to 6.00. On PDK1 (setting [2]), the pIC50 was 5.30 to 6.00.
With `CC(C)(C)NS(=O)(=O)c1cnc(NCc2ccc(-c3ccc4ncnc(N)c4c3)s2)c(C(=O)NCc2ccc(F)c(F)c2)c1` [Example 8.6.20, 2-(((5-(4-aminoquinazolin-6-yl)thiophen-2-yl)methyl)amino)-5-(N-tert-butylsulfamoyl)-N-(3,4-difluorobenzyl)nicotinamide], in experiment [1] (setting [3]), the pEC50 is < 5.00. This molecule also showed a pIC50 against PDK1 (setting [2]) of 6.00 to 7.00.
Turning to `Cc1nc2[nH]nc(N)c2cc1-c1ccc(CNc2ncc(C#N)nc2C(=O)N[C@@H](C)c2ccc(F)c(F)c2)cc1` [Example 400, (S)-3-(4-(3-amino-6-methyl-1H-pyrazolo[3,4-b]pyridin-5-yl)benzylamino)-6-cyano-N-(1-(3,4-difluorophenyl)ethyl)pyrazine-2-carboxamide], in experiment [1] (setting [4]), the pEC50 is 5.00 to 6.00. Besides, at PDK1 (inhibition of PDK1 in vitro), the pIC50 was > 7.00.
Consider `O=C(NCc1ccc(F)c(F)c1)c1cccnc1NCc1ccc(-c2ccc3ncnc(NC4CC4)c3c2)s1` [Example 4.10, 2-(((5-(4-(cyclopropylamino)quinazolin-6-yl)thiophen-2-yl)methyl)amino)-N-(3,4-difluorobenzyl)nicotinamide], for which the pEC50 in experiment [1] (setting [3]) was 5.00 to 6.00. Moreover, the negative logarithm of the IC50 (pIC50) against PDK1 (setting [2]) is > 7.00.
For the molecule `N#Cc1cnc(NCc2ccc(-c3cnc4[nH]ncc4c3)cc2)c(C(=O)NCc2ccc(F)cc2)c1` [Example 397, 5-Cyano-N-(4-fluoro-benzyl)-2-[4-(1H-pyrazolo[3,4-b]pyridin-5-yl)-benzylamino]-nicotinamide], in experiment [1] (setting [4]), the pEC50 was > 6.00. Besides, the pIC50 against PDK1 (inhibition of PDK1 in vitro) was > 7.00.
For `CC(C)Oc1cc(CNc2ncccc2C(=O)N(C)c2cccc(F)c2)cc(-c2c[nH]c3ncc(C(=O)NC4CC4)cc23)c1` [Example 4.1.8, N-cyclopropyl-3-{3-[({3-[(3-fluorophenyl)(methyl)carbamoyl]pyridin-2-yl}amino)methyl]-5-(propan-2-yloxy)phenyl}-1H-pyrrolo[2,3-b] pyridine-5-carboxamide], the pEC50 in experiment [1] (setting [3]) was 5.00 to 6.00. In addition, at PDK1 (setting [2]), the pIC50 was < 5.30.
For `COc1cc(NC(=O)c2cccnc2NCc2ccc(-c3ccc4ncnc(N)c4c3)s2)cc(C(F)(F)F)c1` [Example 3.52, 2-({[5-(4-aminoquinazolin-6-yl)thiophen-2-yl]methyl}amino)-N-[3-methoxy-5-(trifluoromethyl)phenyl]pyridine-3-carboxamide (TFA salt)], in that order: < 5.00 and < 5.30.
As to `C[C@H](NC(=O)c1nc(C#N)cnc1NCc1ccc(-c2cnc(N)c(-c3cccc(O)c3)n2)cc1)c1ccc(F)c(F)c1` [Example 235, 3-{4-[5-Amino-6-(3-hydroxy-phenyl)-pyrazin-2-yl]-benzylamino}-6-cyano-pyrazine-2-carboxylic acid [(S)-1-(3,4-difluoro-phenyl)-ethyl]-amide], in experiment [1] (setting [4]), the pEC50 was 5.00 to 6.00. Moreover, the pIC50 against PDK1 (inhibition of PDK1 in vitro) is > 7.00.
Regarding `Nc1n[nH]c2ncc(-c3ccc(CNc4ncc(C(F)(F)F)cc4C(=O)Nc4ccc(F)cc4F)cc3)cc12` [Example 291, 2-(4-(3-amino-1H-pyrazolo [3,4-b]pyridin-5-yl)benzylamino)-N-(2,4-difluorophenyl)-5-(trifluoromethyl)nicotinamide], in experiment [1] (setting [4]), the pEC50 was > 6.00. Also, the pIC50 against PDK1 (inhibition of PDK1 in vitro) was > 7.00.
Take `C[C@@H](NC(=O)c1cccnc1NCc1ccc(-c2ccc3ncnc(N)c3c2)s1)c1cccc(F)c1` [Example 3.20, 2-({[5-(4-aminoquinazolin-6-yl)thiophen-2-yl]methyl}amino)-N-[(1R)-1-(3-fluorophenyl)ethyl] pyridine-3-carboxamide (TFA salt)]: the pEC50 in experiment [1] (setting [3]) is < 5.00. In addition, the pIC50 at PDK1 (setting [2]) was < 5.30.
Consider `O=C(NCc1ccc(F)c(F)c1)c1cccnc1NCc1cccc(-c2c[nH]c3ncccc23)c1` [Example 1.5, 2-(3-(1H-pyrrolo[2,3-b]pyridin-3-yl)benzylamino)-N-(3,4-difluorobenzyl)nicotinamide], for which the pEC50 in experiment [1] (setting [3]) was 5.00 to 6.00. Further, at PDK1 (setting [2]), the pIC50 was > 7.00.
For `Cc1cnc(/C=C2\C(=O)Nc3cc(/C=C/CNc4ncccc4C(=O)NCc4ccc(F)c(F)c4)ccc32)[nH]1` [Example 15.9, N-(3,4-Difluoro-benzyl)-2-((E)-3-{3-[1-(5-methyl-1H-imidazol-2-yl)-meth-(Z)-ylidene]-2-oxo-2,3-dihydro-1H-indol-6-yl}-allylamino)-nicotinamide], in that order: 5.00 to 6.00 and > 7.00.
For `Nc1ncnc2ccc(-c3ccc(CNc4ncccc4C(=O)Nc4cc(F)c(F)c(F)c4)s3)cc12` [Example 3.40, 2-({[5-(4-aminoquinazolin-6-yl)thiophen-2-yl]methyl}amino)-N-(3,4,5-trifluorophenyl) pyridine-3-carboxamide (TFA salt)], in that order: 5.00 to 6.00 and 6.00 to 7.00.
The matching figures for `CNc1ncnc2ccc(-c3ccc(CNc4ncccc4C(=O)NCc4ccc(F)c(F)c4)s3)cc12` [Example 4.24, N-(3,4-difluorobenzyl)-2-(((5-(4-(methylamino)quinazolin-6-yl)thiophen-2-yl)methyl)amino)nicotinamide]: 5.00 to 6.00 and > 7.00.
Consider `O=C(NCc1ccc(F)c(F)c1)c1cccnc1NCc1cccc(-c2ccc3ncnc(NC4CC4)c3c2)c1` [Example 6.3, 2-(3-(4-(cyclopropylamino)quinazolin-6-yl)benzylamino)-N-(3,4-difluorobenzyl)-nicotinamide], for which the pEC50 in experiment [1] (setting [3]) is < 5.00. Also, at PDK1 (setting [2]), the pIC50 was > 7.00.
On to `N#Cc1ccc(NC(=O)c2cc(C(F)(F)F)cnc2NCc2ccc(-c3cnc4[nH]nc(N)c4c3)cc2)cc1` [Example 300, 2-(4-(3-amino-1H-pyrazolo [3,4-b]pyridin-5-yl)benzylamino)-N-(4-cyanophenyl)-5-(trifluoromethyl)nicotinamide], for which, in experiment [1] (setting [4]), the pEC50 was > 6.00. In addition, the pIC50 against PDK1 (inhibition of PDK1 in vitro) is > 7.00.
In the case of `O=C(NCc1ccc(F)c(F)c1)c1cccnc1NCc1ccc(-c2ccn3ncnc3c2)s1` [Example 8.14.4, N-(3,4-difluorobenzyl)-2-({[5-([1,2,4]triazolo [1,5-a]pyridin-7-yl)thiophen-2-yl]methyl}amino)pyridine-3-carboxamide], the pEC50 in experiment [1] (setting [3]) was < 5.00. Besides, the pIC50 at PDK1 (setting [2]) was 5.30 to 6.00.
As to `Nc1ccc(-c2ccc(CNc3ncc(C(F)(F)F)cc3C(=O)NCc3ccc(F)c(F)c3)cc2)cn1` [Example 370, 2-(4-(6-aminopyridin-3-yl)benzylamino)-N-(3,4-difluorobenzyl)-5-(trifluoro-methyl)nicotinamide], the pEC50 in experiment [1] (setting [4]) was 5.00 to 6.00. On PDK1 (inhibition of PDK1 in vitro), the pIC50 is > 7.00.
On to `Nc1ncc(-c2ccc(CNc3ncc(C(F)(F)F)cc3C(=O)Nc3ccc(F)cc3)cc2)nc1C(=O)N1CCNCC1` [Example 220, 2-{4-[5-Amino-6-(piperazine-1-carbonyl)-pyrazin-2-yl]-benzylamino}-N-(4-fluoro-phenyl)-5-trifluoromethyl-nicotinamide], for which the pEC50 in experiment [1] (setting [4]) is 5.00 to 6.00. For the same molecule, the pIC50 on PDK1 (inhibition of PDK1 in vitro) was > 7.00.
Take `C[C@H](NC(=O)c1nc(C#N)cnc1NCc1ccc(-c2cnc(N)c(CCCO)n2)cc1)c1ccc(F)c(F)c1` [Example 95, 3-{4-[5-Amino-6-(3-hydroxy-propyl)-pyrazin-2-yl]-benzyl-amino}-6-cyano-pyrazine-2-carboxylic acid [(S)-1-(3,4-difluoro-phenyl)-ethyl]-amide]: the pEC50 in experiment [1] (setting [4]) is > 6.00. On PDK1 (inhibition of PDK1 in vitro), the pIC50 is > 7.00.
The matching figures for `C[C@H](NC(=O)c1cc(C#N)cnc1NCc1ccc(-c2cnc(N)c(C(=O)N(C)C)c2)cc1)c1ccc(F)cc1` [Example 205, (S)-2-amino-5-(4-((5-cyano-3-(1-(4-fluorophenyl)ethylcarbamoyl)pyridin-2-ylamino)methyl)phenyl)-N,N-dimethylnicotinamide]: 5.00 to 6.00 and 6.00 to 7.00.
As to `C[C@H](NC(=O)c1nc(C#N)cnc1NCc1ccc(-c2cnc(N)c(CC3CCNC3)n2)cc1)c1ccc(F)c(F)c1` (stereo partly drawn) [Example 187, 3-[4-(5-Amino-6-pyrrolidin-3-ylmethyl-pyrazin-2-yl)-benzylamino]-6-cyano-pyrazine-2-carboxylic acid [(S)-1-(3,4-difluoro-phenyl)-ethyl]-amide], in experiment [1] (setting [4]), the pEC50 was > 6.00. Besides, the pIC50 on PDK1 (inhibition of PDK1 in vitro) was > 7.00.
For `C[C@H](NC(=O)c1cc(C#N)cnc1N[C@H](C)c1ccc(-c2cnc3[nH]nc(N)c3n2)cc1)c1ccc(F)cc1` [Example 435, 2-{(R)-1-[4-(3-Amino-1H-pyrazolo[3,4-b]pyrazin-5-yl)-phenyl]-ethylamino}-5-cyano-N-[(S)-1-(4-fluoro-phenyl)-ethyl]-nicotinamide], in that order: > 6.00 and > 7.00.
Consider `N#Cc1cnc(NC/C=C/c2ccc3c(c2)NC(=O)/C3=C\c2cnc[nH]2)c(C(=O)O)c1` [Example 15.16, 2-((E)-3-((Z)-3-((1H-imidazol-5-yl)methylene)-2-oxoindolin-6-yl)allylamino)-5-cyanonicotinic acid], for which the pEC50 in experiment [1] (setting [3]) is < 5.00. For the same molecule, the pIC50 against PDK1 (setting [2]) is 6.00 to 7.00.

These data come from patent US10030016B2 (Sunesis Pharmaceuticals, Inc., priority 2009, dated 2018).
